Data reported in patent US8536354B2, “Steroidal ligands and their use in gene switch modulation” (Intrexon Corporation, priority 2008, dated 2013).
Changes are numbered by the printed parent chain. pEC50: −log10 of the molar value. Where two headings read alike, the source gives them in different places.

What was measured:
[1] = molecular target: T1, wild-type Choristoneura fumiferana EcR (CfEcR-DEF) (Choristoneura fumiferana, UniProt O77255); assay: Two-hybrid gene switch assay, wild-type CfEcR-DEF (GAL4-EcR / VP16-RXR-USP chimera, luciferase) in NIH3T3 cells; settings: for Emax: NIH3T3, 48 h, read-out: rel max FI (diacylhydrazine), CF
T1 sequence (O77255 219-541): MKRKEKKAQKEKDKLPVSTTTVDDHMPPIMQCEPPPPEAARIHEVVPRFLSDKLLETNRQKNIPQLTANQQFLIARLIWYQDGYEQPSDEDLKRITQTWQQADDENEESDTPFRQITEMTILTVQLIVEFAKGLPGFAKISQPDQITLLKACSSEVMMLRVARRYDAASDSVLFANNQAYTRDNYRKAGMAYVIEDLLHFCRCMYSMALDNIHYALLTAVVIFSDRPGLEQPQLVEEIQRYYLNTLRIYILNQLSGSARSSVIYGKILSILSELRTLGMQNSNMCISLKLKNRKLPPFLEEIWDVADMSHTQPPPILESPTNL
T1 sequence (P28702 299-449 partner): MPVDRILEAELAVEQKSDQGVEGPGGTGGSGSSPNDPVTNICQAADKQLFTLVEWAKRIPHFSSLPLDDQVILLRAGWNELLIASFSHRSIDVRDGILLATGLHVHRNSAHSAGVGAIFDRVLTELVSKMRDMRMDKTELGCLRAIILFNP

[2] = molecular target: wild-type Drosophila melanogaster EcR (DmEcR; GAL4-EcR DEF with VP16-RXR-USP chimera) (Drosophila melanogaster, UniProt P34021); assay: Two-hybrid gene switch assay, luciferase reporter, wild-type DmEcR, mouse NIH3T3 cells; type: cell-based
[3] = molecular target: T2, wild-type CfEcR (GAL4-CfEcR-DEF with VP16-RXR-USP chimera) (Choristoneura fumiferana, UniProt O77255); assay: Two-hybrid gene switch assay, luciferase reporter, wild-type CfEcR, mouse NIH3T3 cells
T2 sequence (O77255 219-541): T1 sequence (O77255 219-541) with E230A
T2 sequence (P28702 1-533 partner): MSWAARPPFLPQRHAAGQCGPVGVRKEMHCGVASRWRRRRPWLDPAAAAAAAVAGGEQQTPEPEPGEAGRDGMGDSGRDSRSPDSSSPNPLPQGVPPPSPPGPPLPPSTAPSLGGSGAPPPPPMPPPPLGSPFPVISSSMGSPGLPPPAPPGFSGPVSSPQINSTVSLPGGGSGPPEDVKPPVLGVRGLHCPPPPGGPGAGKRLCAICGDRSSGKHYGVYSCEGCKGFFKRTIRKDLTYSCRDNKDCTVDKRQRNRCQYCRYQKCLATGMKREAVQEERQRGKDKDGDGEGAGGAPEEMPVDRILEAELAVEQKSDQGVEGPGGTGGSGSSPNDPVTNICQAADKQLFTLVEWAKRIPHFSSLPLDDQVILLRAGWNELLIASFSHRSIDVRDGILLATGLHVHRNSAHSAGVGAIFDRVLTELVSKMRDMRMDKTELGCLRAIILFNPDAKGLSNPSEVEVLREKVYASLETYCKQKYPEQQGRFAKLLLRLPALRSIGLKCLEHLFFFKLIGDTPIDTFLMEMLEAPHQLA

[4] = molecular target: wild-type Aedes aegypti EcR (AaEcR; GAL4-EcR DEF with VP16-RXR-USP chimera) (Aedes aegypti, UniProt P49880); assay: Two-hybrid gene switch assay, luciferase reporter, wild-type AaEcR, mouse NIH3T3 cells; type: cell-based
[5] = molecular target: T3, MsEcR (GAL4-EcR DEF with VP16-RXR-USP chimera) (Manduca sexta, UniProt P49883); assay: Two-hybrid gene switch assay, luciferase reporter, MsEcR, mouse NIH3T3 cells; settings: EC50, FIG. 15, GAL4-EcR (DEF) / VP16-RXR-USP chimera
T3 sequence (P49883 1-556): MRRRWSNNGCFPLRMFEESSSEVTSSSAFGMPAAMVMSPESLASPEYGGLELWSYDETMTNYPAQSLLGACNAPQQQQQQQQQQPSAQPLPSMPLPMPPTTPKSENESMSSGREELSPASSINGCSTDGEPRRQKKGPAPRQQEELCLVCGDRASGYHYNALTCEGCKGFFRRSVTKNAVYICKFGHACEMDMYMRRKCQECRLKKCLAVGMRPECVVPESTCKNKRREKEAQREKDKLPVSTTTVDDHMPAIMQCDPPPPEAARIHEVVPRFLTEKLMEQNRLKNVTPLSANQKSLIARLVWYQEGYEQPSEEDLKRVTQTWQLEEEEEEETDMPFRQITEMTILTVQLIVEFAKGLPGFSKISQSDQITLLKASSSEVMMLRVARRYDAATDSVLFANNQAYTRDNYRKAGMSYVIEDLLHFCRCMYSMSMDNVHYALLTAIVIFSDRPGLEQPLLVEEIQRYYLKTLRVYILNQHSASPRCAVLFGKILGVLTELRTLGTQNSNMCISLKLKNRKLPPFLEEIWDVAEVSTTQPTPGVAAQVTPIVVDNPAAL
T3 sequence (P28702 1-533 partner): T2 sequence (P28702 1-533 partner)

[6] = molecular target: T4, BaEcR (GAL4-EcR DEF with VP16-RXR-USP chimera) (Bemisia tabaci, UniProt A0A6M3RDR8); assay: Two-hybrid gene switch assay, luciferase reporter, BaEcR, mouse NIH3T3 cells; settings: EC50, FIG. 14A/14B, GAL4-EcR(DEF) with VP16-RXR-USP chimera
T4 sequence (A0A6M3RDR8 115-530): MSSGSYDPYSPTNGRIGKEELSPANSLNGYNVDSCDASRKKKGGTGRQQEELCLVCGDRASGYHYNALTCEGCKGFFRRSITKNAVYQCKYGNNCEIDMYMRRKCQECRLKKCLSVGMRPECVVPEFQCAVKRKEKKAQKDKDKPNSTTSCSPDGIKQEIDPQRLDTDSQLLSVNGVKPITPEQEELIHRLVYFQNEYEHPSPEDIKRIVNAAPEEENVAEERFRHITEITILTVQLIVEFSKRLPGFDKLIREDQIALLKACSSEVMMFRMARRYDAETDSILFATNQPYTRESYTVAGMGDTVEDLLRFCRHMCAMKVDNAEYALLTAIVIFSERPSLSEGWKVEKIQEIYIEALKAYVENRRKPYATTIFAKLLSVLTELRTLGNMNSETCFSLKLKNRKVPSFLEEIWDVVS
T4 sequence (P28702 1-533 partner): T2 sequence (P28702 1-533 partner)

[7] = molecular target: T5, TmEcR (GAL4-EcR DEF with VP16-RXR partner) (Tenebrio molitor, UniProt O02035); assay: Two-hybrid gene switch assay, luciferase reporter, TmEcR, mouse NIH3T3 cells
T5 sequence (O02035 194-491): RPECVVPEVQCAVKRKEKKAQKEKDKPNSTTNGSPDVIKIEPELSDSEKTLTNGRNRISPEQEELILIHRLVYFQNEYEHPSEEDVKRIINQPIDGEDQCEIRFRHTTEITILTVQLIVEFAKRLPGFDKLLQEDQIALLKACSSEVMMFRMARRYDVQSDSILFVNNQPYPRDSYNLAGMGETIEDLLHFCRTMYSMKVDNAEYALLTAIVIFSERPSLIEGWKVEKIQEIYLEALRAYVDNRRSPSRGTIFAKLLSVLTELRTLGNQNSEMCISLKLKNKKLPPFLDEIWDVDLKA
T5 sequence (P28704 1-520 partner): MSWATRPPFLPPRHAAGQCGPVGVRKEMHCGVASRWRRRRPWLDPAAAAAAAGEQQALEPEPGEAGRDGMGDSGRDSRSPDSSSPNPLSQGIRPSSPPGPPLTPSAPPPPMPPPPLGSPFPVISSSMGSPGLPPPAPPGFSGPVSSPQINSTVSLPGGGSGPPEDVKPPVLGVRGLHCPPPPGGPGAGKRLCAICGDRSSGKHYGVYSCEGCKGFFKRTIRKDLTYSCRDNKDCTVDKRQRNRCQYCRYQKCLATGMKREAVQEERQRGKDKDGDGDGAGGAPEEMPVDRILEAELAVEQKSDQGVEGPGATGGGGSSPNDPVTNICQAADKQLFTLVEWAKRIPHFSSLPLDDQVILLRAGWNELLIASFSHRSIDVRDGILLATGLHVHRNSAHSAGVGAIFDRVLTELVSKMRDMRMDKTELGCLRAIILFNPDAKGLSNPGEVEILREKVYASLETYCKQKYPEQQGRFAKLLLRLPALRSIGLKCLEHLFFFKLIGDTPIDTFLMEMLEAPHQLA

Chain of wild-type Drosophila melanogaster EcR (DmEcR; GAL4-EcR DEF with VP16-RXR-USP chimera) (P34021 with tags, fused parts or gaps limits assumed): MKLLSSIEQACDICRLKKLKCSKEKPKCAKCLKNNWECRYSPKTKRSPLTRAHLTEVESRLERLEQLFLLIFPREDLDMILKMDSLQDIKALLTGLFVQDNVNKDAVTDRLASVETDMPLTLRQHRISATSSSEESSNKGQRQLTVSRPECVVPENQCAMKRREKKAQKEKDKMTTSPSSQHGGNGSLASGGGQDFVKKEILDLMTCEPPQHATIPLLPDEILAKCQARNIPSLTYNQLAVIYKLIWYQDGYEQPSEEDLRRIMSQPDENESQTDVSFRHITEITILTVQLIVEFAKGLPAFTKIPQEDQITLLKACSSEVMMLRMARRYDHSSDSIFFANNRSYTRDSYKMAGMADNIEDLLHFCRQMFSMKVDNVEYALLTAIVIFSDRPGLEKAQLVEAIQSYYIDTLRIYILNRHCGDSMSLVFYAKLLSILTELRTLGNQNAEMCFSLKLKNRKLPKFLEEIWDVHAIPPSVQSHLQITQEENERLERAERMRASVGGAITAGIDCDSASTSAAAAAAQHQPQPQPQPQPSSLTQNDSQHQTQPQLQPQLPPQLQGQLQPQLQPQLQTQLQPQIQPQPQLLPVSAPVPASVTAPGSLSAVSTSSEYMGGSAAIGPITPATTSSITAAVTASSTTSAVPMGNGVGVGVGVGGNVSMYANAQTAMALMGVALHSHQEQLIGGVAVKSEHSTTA
Chain of wild-type Aedes aegypti EcR (AaEcR; GAL4-EcR DEF with VP16-RXR-USP chimera) (P49880 with tags, fused parts or gaps limits assumed, change not shown): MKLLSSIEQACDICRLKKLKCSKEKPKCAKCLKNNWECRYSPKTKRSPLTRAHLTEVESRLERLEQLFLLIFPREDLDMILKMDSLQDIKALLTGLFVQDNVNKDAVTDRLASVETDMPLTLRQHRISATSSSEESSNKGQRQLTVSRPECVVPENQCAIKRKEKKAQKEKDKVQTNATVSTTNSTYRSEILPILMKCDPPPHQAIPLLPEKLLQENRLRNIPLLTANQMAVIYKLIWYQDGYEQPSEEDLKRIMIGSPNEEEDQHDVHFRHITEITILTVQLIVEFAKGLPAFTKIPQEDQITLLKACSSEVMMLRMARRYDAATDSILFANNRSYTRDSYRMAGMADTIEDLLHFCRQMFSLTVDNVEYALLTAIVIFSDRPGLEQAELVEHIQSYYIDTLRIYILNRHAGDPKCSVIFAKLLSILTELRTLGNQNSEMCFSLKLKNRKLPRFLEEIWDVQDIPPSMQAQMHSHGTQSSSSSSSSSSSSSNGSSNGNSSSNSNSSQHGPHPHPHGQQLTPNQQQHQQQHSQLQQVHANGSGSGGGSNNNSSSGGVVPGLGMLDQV

`CCO[C@H](CCC(C)(C)O)[C@](C)(O)C1CC[C@@]2(O)C3=CC(=O)C4C[C@@H](O)[C@@H](O)CC4(C)C3CCC12C` (stereo partly shown) [20E-22-ethyl ether] gave an Emax [1] of 77%.

Work on `CCCO[C@H](CCC(C)(C)O)[C@](C)(O)C1CC[C@@]2(O)C3=CC(=O)C4C[C@@H](O)[C@@H](O)CC4(C)C3CCC12C` (stereo partly shown) [20E-22-n-propyl ether] yielded a pEC50 [1] of less than 4.48 and an Emax [1] of 0.5%.

With `COC(C)(C)CCC(O)C(C)(O)C1CCC2(O)C3=CC(=O)C4CC(O)C(O)CC4(C)C3CCC12C` (stereo not shown) [20E-25-methyl ether] the pEC50 [1] was less than 4.48 and the Emax [1] was 0.13%.

Molecule `C=CCO[C@H](CCC(C)(C)O)[C@](C)(O)C1CC[C@@]2(O)C3=CC(=O)C4C[C@@H](O)[C@@H](O)CC4(C)C3CCC12C` (stereo partly shown) [Compound 7] has a pEC50 ([2]; EC50, FIG. 8) of roughly 5.30 and a pEC50 [3] of less than 4.48.

In the case of `CCCCO[C@H](CCC(C)(C)O)[C@](C)(O)C1CC[C@@]2(O)C3=CC(=O)C4C[C@@H](O)[C@@H](O)CC4(C)C3CCC12C` (stereo partly shown) [Compound 8], the pEC50 ([4]; FIG. 8, read-out: EC50) was 5.57, the pEC50 ([2]; EC50, FIG. 8) was 4.84 and the pEC50 [3] was less than 4.48.

Work on `CC(C)(O)CC[C@@H](OCc1ccccc1)[C@](C)(O)C1CC[C@@]2(O)C3=CC(=O)C4C[C@@H](O)[C@@H](O)CC4(C)C3CCC12C` (stereo partly shown) [Compound 9] yielded a pEC50 [3] of less than 4.48.

Work on `COC(C)(C)CC[C@@H](O)[C@](C)(O)[C@H]1CC[C@@]2(O)C3=CC(=O)[C@@H]4C[C@@H](O)[C@@H](O)C[C@]4(C)[C@H]3CC[C@]12C` [Compound 10] yielded a pEC50 ([4]; EC50, FIG. 8) of roughly 6.52 and a pEC50 ([2]; EC50, FIG. 8) of 5.26.

`CO[C@H](CCC(C)(C)OC)[C@](C)(O)[C@H]1CC[C@@]2(O)C3=CC(=O)[C@@H]4C[C@@H](O)[C@@H](O)C[C@]4(C)[C@H]3CC[C@]12C` [Compound 14] showed a pEC50 ([2]; EC50, FIG. 8) of 5.80 and a pEC50 [3] of less than 4.48.

Work on `CO[C@H]1CC2(C)C(C[C@H]1OC)C(=O)C=C1C2CCC2(C)C([C@@](C)(O)[C@@H](CCC(C)(C)O)OC)CC[C@@]12OC` (stereo partly shown) [Compound 15] yielded a pEC50 [3] of less than 4.48.

For `CO[C@@]12CC[C@H]([C@@](C)(O)[C@H](O)CCC(C)C)[C@@]1(C)CC[C@H]1C2=CC(=O)[C@@H]2C[C@@H](O)[C@@H](O)C[C@@]21C` [Compound 17], the pEC50 [3] was roughly 4.70.

`CO[C@H]1C[C@@]2(C)[C@@H](C[C@H]1O)C(=O)C=C1[C@@H]2CC[C@]2(C)[C@@H]([C@@](C)(O)[C@@H](CCC(C)C)OC)CC[C@@]12O` [Compound 19] showed a pEC50 [3] of 4.56.

Molecule `CO[C@H](CCC(C)C)[C@](C)(O)[C@H]1CC[C@@]2(OC)C3=CC(=O)[C@@H]4C[C@@H](O)[C@@H](O)C[C@]4(C)[C@H]3CC[C@]12C` [Compound 21] has a pEC50 [3] of less than 4.48.

`CO[C@H](CCC(C)C)[C@](C)(O)C1CC[C@@]2(O)C3=CC(=O)C4C[C@@H](O)[C@@H](O)CC4(C)C3=CCC12C` (stereo partly shown) [Compound 22] was tested, and the pEC50 [3] was 4.86.

Work on `CC(C(O)CCC(C)(C)O)C1CCC2(O)C3=CC(=O)C4CC(O)C(O)CC4(C)C3CCC12C` (stereo not shown) [Compound 24] yielded a pEC50 [3] of less than 4.48.

With `CC(C)(O)CC[C@@H](O)[C@](C)(O)[C@H]1CC[C@@]2(O)C3=CC(=O)[C@@H]4C[C@@H](O)[C@@H](O)C[C@]4(C)[C@H]3CC[C@]12C` [Compound 25] the pEC50 ([4]; FIG. 8, read-out: EC50) was 6.03.

`CC(C)CCC(O)C(C)(O)C1CCC2(O)C3=CC(=O)C4(O)CC(O)C(O)CC4(C)C3C(O)CC12C` (stereo not shown) [Compound 28] showed a pEC50 ([2]; EC50, FIG. 8) of 6.95.

With `CC(C)CC[C@@H](O)[C@](C)(O)[C@H]1CC[C@@]2(O)C3=CC(=O)[C@@H]4C[C@@H](O)[C@@H](O)C[C@]4(C)[C@H]3CC[C@]12C` [PoA, ponasterone A, reference compound] the pEC50 ([2]; EC50, FIG. 4C) was 6.95, the pEC50 ([2]; EC50, FIG. 16, GAL4-EcR (DEF) / VP16-RXR-USP chimera) was 6.08 and the pEC50 [5] was 6.77. It also gave a pEC50 [6] of 7.51, a pEC50 ([7]; EC50, FIG. 14A/14B, GAL4-EcR(DEF)) of 7.36 and a pEC50 ([7]; EC50, FIG. 16, GAL4-EcR (DEF)) of 7.15. The pEC50 [3] was 5.07.

With `CC(C)(O)CC[C@@H](O)[C@](C)(O)[C@H]1CC[C@@]2(O)C3=CC(=O)[C@]4(O)C[C@@H](O)[C@@H](O)C[C@]4(C)[C@H]3CC[C@]12C` [polypodine B, reference compound] the pEC50 ([1]; wt-CfEcR gene switch, NIH3T3, Example One) was roughly 4.92.
